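Grown in 96-well plates, cells were treated for 48 hours with each compound at five concentrations. Insufficient inhibition: endpoint recorded as highest concentration tested. GI50: concentration for 50% inhibition of growth. TGI marks complete inhibition of growth.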
Assays:
Assay in all cases: DTP human tumour cell line panel, 48 h
[1] = tested on: A498 renal
[2] = tested on: DMS 114 small cell lung
[3] = tested on: DMS 273 small cell lung
[4] = tested on: EKVX NSCLC
[5] = tested on: HCT-15 colon
[6] = tested on: KM20L2 colon
[7] = tested on: LXFL 529 NSCLC
[8] = tested on: M19-MEL melanoma
[9] = tested on: SNB-78 CNS
[10] = tested on: SW-620 colon
[11] = tested on: U251 CNS
[12] = tested on: UACC-62 melanoma
[13] = tested on: MDA-N
[14] = tested on: T-47D breast

SMILES	TGI [1] [µM]	TGI [2] [µM]	TGI [3] [µM]	TGI [4] [µM]	TGI [5] [µM]	TGI [6] [µM]	TGI [7] [µM]	TGI [8] [µM]	TGI [9] [µM]	TGI [10] [µM]	TGI [11] [µM]	TGI [12] [µM]	TGI [13] [µM]	TGI [14] [µM]	GI50 [13] [nM]	GI50 [11] [µM]	GI50 [5] [µM]	GI50 [12] [µM]
COc1cc2c(cc1OC)C(CC1=C(c3ccccc3)CN3CCc4cc(OC)c(OC)cc4C3C1)NCC2 (centres undefined)	33.2	30.3	31.6	38.8	36.1	28.9	31.1	30.7	31.9	34.6	29.8	36.3						
N#C[C@H](c1ccccn1)c1nc2ccccc2nc1Cl	> 100			> 100	> 100					> 100	> 100	> 100	> 100	> 100				
C=CCc1cccc2cc(C(=O)NCc3ccccc3)c(=N)oc12	86.8			> 100	> 100					> 100	> 100	> 100	> 100	> 100				
Cc1ccnc2[nH]c(-c3ccc4ccccc4c3)cc(=O)c12	4.87			26.8	10.8					13.9	10.4	9	0.448	34.6	206	0.644		
BrC1=C(Br)C2(SCCS2)[C@H]2C[C@@H]1c1ccccc12	> 100			> 100	> 100					> 100	> 100	> 100	> 26.2	> 100				
O=c1[nH]nnc2c1sc1ncccc12	> 100			> 100	> 100					> 100	> 100	> 100	> 100	> 100				
Cc1ccc(S(=O)(=O)c2[nH]cc(/C(=C\C3CCCCC3)[N+](=O)[O-])c2C2CCCCC2)cc1	0.837			1.4	0.46					3.67	4.56	0.625	0.968	1.29				
CN1C(=O)c2ccccc2OC12C=Cc1c(ccc3ccccc13)O2 (centres undefined)	44.9			10.7	> 25.5					> 72.6	> 34	> 47.1	10.4	> 25.7				
Cc1c(C)c2c(c(N)c1C#N)C(=O)N(NC(=O)c1ccccc1)C2=O	> 100			> 100	> 100					> 100	> 100	> 100	> 100	> 100				
Cc1[nH]c(=O)nc2nc3ccc(Cl)cc3c(NCCNCCO)c12	34.6			23.8	31.9					19.6	21.2	24.3	25.4	23.1				
CC1(C)OC(C(=O)Nc2cc3c4ccccc4ccc3c3ccccc23)C(C(=O)N2CCCCC2)O1 (centres undefined)	> 100			> 100	> 100					> 100	> 100	> 100	> 100	> 100				
COC(=O)C1=C(C(=O)OC)N(c2ccc(OC)cc2[N+](=O)[O-])C(c2ccc(C)cc2)=CC1c1ccc(OC)cc1OC (centres undefined)	46.3			> 100	57.9					19.2	34.8	> 100	> 100	> 93.3				
C=CCCON(C(=O)OC(C)(C)C)C(C)(C)C	> 100			> 100	> 100					> 100	> 100	> 100	> 100	> 100				
O=S(=O)(O)CCCc1cccc2ccccc12	> 100			> 100	> 100					> 100	> 100	> 100	> 100	> 100				
CCN(CC)Cc1ccc(C(=S)Nc2ccc(Cl)cc2)s1	25.8			19.4	23					36.8	26.2	23	23.6	34.2				
C/C=C/C(CC(O)(C(F)(F)F)C(F)(F)F)=N/NC(N)=S	> 10			> 10	> 10					> 10	> 10	> 10	> 10	> 10				
COC[C@@H](N=CC(C)(C)C)C(C)C	> 100			> 100	> 100					> 100	> 100	> 100	> 100	> 100				
NS(=O)(=O)c1ccc(/C=C/c2ccc(O)c(O)c2)cc1	> 100			64	> 100					> 100	46.9	42.2	65.7	53.1		16.3	13.9	23.3
Brc1ccc2[nH]cc(-c3csc(-c4c[nH]c5ccccc45)n3)c2c1	13.8			12	6.54					8.23	8.64	> 22.5	7.65	26.9				
N#Cc1n[nH]n(-c2ccc(Br)cc2)c1=O	> 100			> 100	> 100					> 100	> 100	> 100	> 100	> 100				
COc1cc(OC)cc(Oc2nc3ccccc3nc2C(F)(F)F)c1	73.9			> 100	> 100					> 100	> 100	> 100	> 100	> 100				
O=C1COc2cccnc2N1CCCCO	> 100			> 100	> 100					> 100	> 100	> 100	> 100	> 100				
CC(=O)N(C(C)=O)c1ncc(-n2nc(-c3ccccc3)cc2-c2ccccc2)c(-c2ccccc2)n1	> 10			> 10	> 10					> 10	> 10	> 10	9.42	> 10				
O=c1oc2ccc3ccccc3c2cc1-c1nc2ccccc2s1	> 100			> 100	> 100					> 100	> 100	> 100	> 100	> 100				
COC(=O)C1=C(OC(=O)/C(=C/c2ccc(Cl)cc2)c2ccc(Cl)cc2)C(C(=O)OC)[C@@]2(O)[C@@H](C(=O)OC)[C@H](C)C[C@@H]1[C@@H]2C(=O)OC (some centres undefined)	> 100			> 100	> 100					> 100	> 100	> 100	> 100	> 100				
O=C1C=CC(=O)c2c1ccc1c3ccccc3n(CCCCCn3c4ccccc4c4ccc5c(c43)C(=O)C=CC5=O)c21	> 95.7			> 94.3	36.2					26.8	54	71.8	40.1	24.5				
CC1(C)[C@@H](Cn2ccc(=O)[nH]c2=O)CC[C@@]1(C)CO	> 100			> 100	> 100					> 100	> 100	> 100	> 100	> 100				
C=C(Cl)C(=CCl)CCC(Br)C(C)(C)Cl (mixture of isomers)	> 10			> 10	> 10					> 10	> 10	> 10	> 10	> 10				
CC(C)(C)OC(=O)NC1CCCCC1NC(=O)C(=O)NC1CCCCC1NC(=O)OC(C)(C)C (centres undefined)	79.6			> 100	> 100					> 100	> 100	92.9	> 100	> 100				
CN(C)c1ccc(/C=c2/c3ccccc3n3c2c2c([n+]3C)CCCC2)cc1	0.92			0.353	5.56					10.5	2.3	1.95	1.27	0.362				

— PubChem BioAssay (NCI)
